Reference: patent EP0702683B1, “06-SUBSTITUTED GUANINE DERIVATIVES, A PROCESS FOR THEIR PREPARATION AND THEIR USE IN TREATING TUMOUR CELLS” (Cancer Research Technology Limited, priority 1993, dated 1994)
pIC50: −log10 of the molar value. Like-named read-outs stand apart in the source and are kept apart here.

How the values were obtained:
ATase [1] = target: T1, ATase (Homo sapiens, UniProt P16455); experiment: In vitro ATase inactivation assay with purified recombinant human ATase; format: biochemical; set-up: made in house; conditions: for ability to inactivate recombinant human ATase: up to the highest concentration used, in words; for effectiveness in the in vitro ATase inactivation assay compared with BeG: Figure 1, in words
T1 sequence (P16455 1-207): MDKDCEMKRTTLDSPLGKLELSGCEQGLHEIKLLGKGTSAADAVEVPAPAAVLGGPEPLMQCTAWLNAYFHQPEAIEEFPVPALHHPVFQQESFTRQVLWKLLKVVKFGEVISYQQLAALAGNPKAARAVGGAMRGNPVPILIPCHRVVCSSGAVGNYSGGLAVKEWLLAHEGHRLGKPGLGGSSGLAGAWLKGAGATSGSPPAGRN
Method: The cDNA cloning and overexpression of the human ATase has been reported previously^23. Purification of the recombinant proteins was achieved either by affinity chromatography through a DNA-cellulose column as described by Wilkinson et al.,^25, 26, or by DEAE-cellulose ion-exchange chromatography. For the latter, the ATase protein was partially purified by ammonium sulphate precipitation (30 - 60%) and dialysed against 10 mM Tris-HCl pH 7.5, 1 mM DTT, 2 mM EDTA, 10% glycerol, before loading on a DEAF-cellulose column. The ATase was then eluted with a 0-0.1 M NaCl gradient.
Compounds to be tested were dissolved in DMSO to a final concentration of 10 mM and diluted just before use in buffer I containing 1 mg/ml bovine serum albumin (IBSA). Recombinant ATase was diluted in IBSA and titrated in order that the reaction be conducted under ATase, and not substrate, limiting conditions. In each assay, fixed amounts of ATase (60-75 fmol) were incubated with varying amounts of 0^6-benzylguanine, or test compound in a total volume of 200 µl of IBSA containing 10 µg of calf thymus DNA at 37°C for 1 hour. The [^3H]-methylated-DNA substrate (100 µl containing 6.7 µg of DNA and 100 fmol of 0^6-methylguanine) was added and incubation continued at 37° for 1 hour, until the reaction was completed. Following acid hydrolysis of the DNA as previously described^21 the [^3H]-methylated protein was recovered and quantitated by liquid scintillation counting. Samples were typically assayed in duplicate and experiments repeated several times. I50 is the concentration of inactivator required to produce a 50% reduction in ATase activity.

[2] = Stability of inactivators at 37°C (spectrophotometric half life); format: physicochemical
Method: Inactivators (10mM in DMSO) were diluted to 0.1mM in prewarmed degassed buffer I (1mM EDTA, 50mM Tris pH 8.3) or PBS (pH 7-7.2). […] Samples were immediately transferred to a CARY13 spectrophotometer (cuvette block held at 37°C) and scanned at an appropriate wavelength (according to the spectral properties of the compound) at 3-10 minute intervals for up to 80 hours. The results were expressed as percentage absorbance change versus time and T1/2 values (half life) extrapolated from this.

Raji cells = experiment: Sensitization of Raji cells to BCNU (XTT assay); format: cell-based, human; conditions: BCNU, 2 hour pretreatment; for Raji sensitization (D90.^C/D90.^I) 0.5µM: inactivator 0.5µM; for Raji sensitization (D90.^C/D90.^I) 1.0µM: inactivator 1.0µM; for Raji sensitization (D90.^C/D90.^I) O.1µM: inactivator O.1µM
Method: Following a 2 hour incubation at 37°C, medium containing either increasing doses of BCNU, temozolomide or equivalent vehicle was added and the cells allowed to grow for 6 days. At this time XTT solution was added and the cells incubated for a further 4 hours at 37°C. The resulting red/orange formazan reaction product was quantified by measuring absorption at 450nm on a microtitre platereader.

ATase [3] = target: T1, ATase; experiment: Inactivation of ATase activity in Raji cells; format: cell-based; set-up: endogenous in cells; host or cells: Raji; conditions: Raji cells, 2 hours at 37°C; read-out: Raji I50
Method: Mammalian cells were cultured under standard conditions. For example, Raji (a human lymphoblastoid cell line from a Burkitt's lymphoma) cells were grown in suspension culture in RPMI medium supplemented with 10% horse serum. A375M cells are human melanoma cells from which the xenografts described below were established following subcutaneous injection into nude mice: WiDr cells are a human colon carcinoma cell line: Hamster+120 cells are a mitozolomide-selected subline of a Chinese hamster lung fibroblast V79 cell line called RJKO: Yoshida cells are a rat carcinosarcoma cell line and YRbus is a busulphan resistant subline thereof: XP cells are an SV40-transformed fibroblast cell line originally from the skin of a Xeroderma pigmentosum patient, pHMGhAT2b cells are a clone of these cells that have been transfected with a mammalian cell expression vector containing the human ATase cDNA and pHMGla cells are a clone that have been transfected with the expression vector only (i.e. one not containing the human ATase cDNA). Cell pellets were resuspended in cold (4°C) buffer I containing 2 µg/ml leupeptin and sonicated for 10 seconds at 12 µ peak to peak distance. After cooling in ice, the cells were sonicated for a further 10 seconds at 18 µ. Immediately after sonication, 0.01 volumes of 8.7 mg/ml phenylmethanesulphonylfluoride in ethanol was added and the sonicates centrifuged at 15 000 g for 10 minutes at 4°C to pellet cell debris. The supernatant was kept for determination of ATase activity (see below).
Cells were diluted to 10^6/ml in culture medium containing either the appropriate concentration of inactivator or an equivalent volume of vehicle (DMSO). Following incubation at 37°C for 2 hours the cells were harvested by centrifugation, washed twice with PBS and the resulting cell pellets (between 1-2 x 10^7 per pellet) stored at -20°C.

A375M cells = experiment: Sensitization of A375M cells to BCNU (MTT assay); format: cell-based, human; conditions: for A375M sensitization (D50.^C/D50.^I) 0.5uM: inactivator 0.5uM 2 hours before; for A375M sensitization (D50.^C/D50.^I) 5.0uM: inactivator 5.0uM 2 hours before; for A375M sensitization (D50.^C/D50.^I) 1.0uM: inactivator 1.0uM 2 hours before
Method: Sensitization of A375M cells to the cytotoxic effects of BCNU was analysed by MTT assay ^24 differing from the XTT assay described above as follows. […] After 6 days MTT solution (4mg/ml) was added and cells incubated for 3 hours at 37°C. Medium was aspirated and the resulting purple formazan crystals were solubilised in DMSO (120μl) and cell viability was quantified by measuring absorption at 540nm using a microtitre plate reader.

[4] = 0.1mM in PBS (pH 7-7.2), read-out: T1/2(h) in PBS (converted)
[5] = 0.1mM in buffer I (1mM EDTA, 50mM Tris pH 8.3), read-out: T1/2(h) in Buffer I (converted)

Molecule	pIC50 (ATase [1])	half-life at 100 µM [2, 4] [h]	pIC50 (ATase [3])	further results
CC(Oc1nc(N)nc2[nH]cnc12)c1ccccc1 (racemic) [B.4214, DL-O^6-(α -methylbenzyl)guanine, reference compound]	< 4.22	–	–	ability to inactivate recombinant human ATase (ATase [1]): did not inactivate ATase up to the highest concentration used
CC(Oc1nc(N)nc2[nH]cnc12)c1cccs1 (racemic) [B.4217, DL-O^6-(α -methylthenyl)guanine]	< 3.30	–	–	ability to inactivate recombinant human ATase (ATase [1]): did not inactivate ATase up to the highest concentration used
CC(Oc1nc(N)nc2[nH]cnc12)c1ccsc1 (racemic) [B.4219, DL-O^6-[1-(3-thienyl)ethyl]guanine]	4.07	0.12	< 6.00	Raji sensitization (D90.^C/D90.^I) 0.5µM (Raji cells): 1.0; Raji sensitization (D90.^C/D90.^I) 1.0µM (Raji cells): 1.0; Raji sensitization (D90.^C/D90.^I) O.1µM (Raji cells): 1.0
Nc1nc(OCc2ccsc2)c2nc[nH]c2n1 [B.4206, O^6-(3-thienylmethyl)guanine]	7.52	> 16	7.22	A375M sensitization (D50.^C/D50.^I) 0.5uM (A375M cells): 3.3; A375M sensitization (D50.^C/D50.^I) 5.0uM (A375M cells): 4.6; half-life at 100 µM [2, 5]: > 80 h; effectiveness in the in vitro ATase inactivation assay compared with BeG (ATase [1]): somewhat more effective than BeG; Raji sensitization (D90.^C/D90.^I) 1.0µM (Raji cells): 6.0; Raji sensitization (D90.^C/D90.^I) O.1µM (Raji cells): 1.6
Nc1nc(OCc2ccoc2)c2nc[nH]c2n1 [B.4209, O^6-(3-furylmethyl)guanine]	6.82	> 16	6.82	A375M sensitization (D50.^C/D50.^I) 1.0uM (A375M cells): 2.5; Raji sensitization (D90.^C/D90.^I) 0.5µM (Raji cells): 1.4; Raji sensitization (D90.^C/D90.^I) 1.0µM (Raji cells): 2.8; Raji sensitization (D90.^C/D90.^I) O.1µM (Raji cells): 1.5
Nc1nc(OCc2ccccn2)c2nc[nH]c2n1 [B.4210, O^6-(2-picolyl)guanine]	–	> 16	–	A375M sensitization (D50.^C/D50.^I) 1.0uM (A375M cells): 1.5
Nc1nc(OCc2cccnc2)c2[nH]cnc2n1 [B.4211, O^6-(3-picolyl)guanine]	6.37	> 16	–	–
Nc1nc(OCc2ccc3c(c2)OCO3)c2nc[nH]c2n1 [B.4212, O^6-piperonylguanine]	7.70	0.72	7.30	A375M sensitization (D50.^C/D50.^I) 0.5uM (A375M cells): 2.3; A375M sensitization (D50.^C/D50.^I) 5.0uM (A375M cells): 2.5; half-life at 100 µM [2, 5]: 1.3 h; effectiveness in the in vitro ATase inactivation assay compared with BeG (ATase [1]): considerably better; Raji sensitization (D90.^C/D90.^I) 1.0µM (Raji cells): 10.7; Raji sensitization (D90.^C/D90.^I) O.1µM (Raji cells): 2.7
Nc1nc(OCc2ccc3ccccc3c2)c2nc[nH]c2n1 [B.4213, O^6-(2-naphthylmethyl)guanine]	6.82	> 16	7.52	A375M sensitization (D50.^C/D50.^I) 1.0uM (A375M cells): 2.0; Raji sensitization (D90.^C/D90.^I) 0.5µM (Raji cells): 2.1; Raji sensitization (D90.^C/D90.^I) 1.0µM (Raji cells): 2.9; Raji sensitization (D90.^C/D90.^I) O.1µM (Raji cells): 1.2
Cc1ccccc1COc1nc(N)nc2[nH]cnc12 [B.4218, O^6-(2-methylbenzyl)guanine, reference compound]	4.24	–	–	–
Cc1ccc(COc2nc(N)nc3[nH]cnc23)s1 [B.4220, O^6-(5-methylthenyl)guanine]	5.05	> 16	< 6.00	A375M sensitization (D50.^C/D50.^I) 1.0uM (A375M cells): 1.3; Raji sensitization (D90.^C/D90.^I) 0.5µM (Raji cells): 1.0; Raji sensitization (D90.^C/D90.^I) 1.0µM (Raji cells): 1.0; Raji sensitization (D90.^C/D90.^I) O.1µM (Raji cells): 1.0
Cc1ccc(COc2nc(N)nc3[nH]cnc23)o1 [B.4221, O^6-(5-methylfurfuryl)guanine]	5.00	> 16	< 6.00	A375M sensitization (D50.^C/D50.^I) 1.0uM (A375M cells): 1.0; Raji sensitization (D90.^C/D90.^I) 0.5µM (Raji cells): 1.0; Raji sensitization (D90.^C/D90.^I) 1.0µM (Raji cells): 1.0; Raji sensitization (D90.^C/D90.^I) O.1µM (Raji cells): 1.0
Nc1nc(OCc2cccc3ccccc23)c2nc[nH]c2n1 [B.4265, O^6-(1-naphthylmethyl)guanine]	4.02	–	–	half-life at 100 µM [2, 5]: 60 h
Nc1nc(OCc2cc3ccccc3o2)c2nc[nH]c2n1 [B.4266, O^6-(2-benzofuranylmethyl)guanine]	7.46	> 16	–	A375M sensitization (D50.^C/D50.^I) 0.5uM (A375M cells): 6.3; A375M sensitization (D50.^C/D50.^I) 5.0uM (A375M cells): 6.3
Nc1nc(OCc2ccc3c(c2)OCO3)c2ncn([C@@H]3O[C@H](CO)[C@@H](O)[C@H]3O)c2n1 [B.4268, O^6-piperonylguanosine]	6.12	8	–	–
Nc1nc(OCc2ccc(Br)s2)c2nc[nH]c2n1 [B.4269, O^6-(5-bromothenyl)guanine]	8.35	–	8.22	–
Nc1nc(OCc2cnc3c(c2)OCO3)c2nc[nH]c2n1 [B.4271, O^6-(5-azapiperonyl)guanine]	6.64	> 16	–	–
N#Cc1ccc(COc2nc(N)nc3[nH]cnc23)o1 [B.4273, O^6-(5-cyanofurfuryl)guanine]	8.22	–	–	–
Nc1nc(OCc2cnco2)c2nc[nH]c2n1 [B.4274, O^6-(5-oxazolylmethyl)guanine]	6.47	–	–	–
Nc1nc(OCc2cncs2)c2nc[nH]c2n1 [B.4275, O^6-(5-thiazolylmethyl)guanine]	7.48	–	–	–
Nc1nc(OCc2cc3ccccc3s2)c2ncn([C@@H]3O[C@H](CO)[C@@H](O)[C@H]3O)c2n1 [B.4276, O^6-(2-benzo[b]thienylmethyl)guanosine]	6.46	–	–	–
Nc1nc(OCc2ccncc2)c2nc[nH]c2n1 [B.4277, O^6-(4-picolyl)guanine]	6.89	–	–	–
Cn1cc([N+](=O)[O-])cc1COc1nc(N)nc2[nH]cnc12 [B.4278, O^6(1-methyl-4-nitropyrrol-2-ylmethyl) guanine]	6.26	–	–	–
Nc1nc(OCc2cccs2)c2ncn([C@@H]3O[C@H](CO)[C@@H](O)[C@H]3O)c2n1 [B.4279, O^6-thenylguanosine]	6.05	–	–	–
C=CCOc1nc(N)nc2[nH]cnc12 [O^6-allylguanine, reference compound]	4.66	–	–	A375M sensitization (D50.^C/D50.^I) 0.5uM (A375M cells): 1.3; A375M sensitization (D50.^C/D50.^I) 5.0uM (A375M cells): 1.9; half-life at 100 µM [2, 5]: > 64 h
O^6-(2-methoxybenzyl)guanine [B.4231, reference compound]	–	–	–	pIC50 (ATase [1]; recombinant human ATase incubated with inactivator 1 hour at 37°C before substrate, read-out: I50): 4.22
